Laboratory results taken from PubChem BioAssay (NCI).
“And” between values parts separate entries of the source, which are not always exact repeats. Equal values may be shown once.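 Following 48 hours of exposure in 96-well plates, responses at five concentrations were used to interpolate endpoints linearly. GI50 is the concentration that inhibits growth by half. At the TGI there is no net growth.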

Key:
Test in all cases: growth of human tumour cells (NCI), 48 h
OVCAR-5 ovarian = system: OVCAR-5 ovarian
CCRF-CEM leukemia = system: CCRF-CEM leukemia
LOX IMVI melanoma = system: LOX IMVI melanoma
MCF7 breast = system: MCF7 breast
BT-549 breast = system: BT-549 breast
RPMI-8226 leukemia = system: RPMI-8226 leukemia
UACC-257 melanoma = system: UACC-257 melanoma
SW-620 colon = system: SW-620 colon
SN12C renal = system: SN12C renal
OVCAR-4 ovarian = system: OVCAR-4 ovarian

SMILES	GI50 (OVCAR-5 ovarian)	TGI (OVCAR-5 ovarian)	GI50 (CCRF-CEM leukemia)	TGI (CCRF-CEM leukemia)	GI50 (LOX IMVI melanoma)	TGI (LOX IMVI melanoma)	GI50 (MCF7 breast)	TGI (MCF7 breast)	GI50 (BT-549 breast)	TGI (BT-549 breast)	GI50 (RPMI-8226 leukemia)	TGI (RPMI-8226 leukemia)	GI50 (UACC-257 melanoma)	TGI (UACC-257 melanoma)	GI50 (SW-620 colon)	TGI (SW-620 colon)	GI50 (SN12C renal)	TGI (SN12C renal)	TGI (OVCAR-4 ovarian)	GI50 (OVCAR-4 ovarian)
COC(=O)C1=C(O)C(C(=O)OC)[C@@]2(O)[C@@H](C(=O)OC)C(c3ccc(OC(=O)C(CC(C)C)NC(C)=O)cc3)C[C@@H]1[C@@H]2C(=O)OC (stereo not given in full)	32.2 µM	> 100 µM	41.4 µM	> 100 µM	20.6 µM	45 µM	48.8 µM	> 100 µM	33.6 µM	> 100 µM	> 100 µM	> 100 µM	> 100 µM	> 100 µM	55.5 µM	> 100 µM	30.2 µM	> 100 µM	–	–
CC(C)C[C@H](NC(=O)[C@@H](O)[C@H](N)Cc1ccccc1)C(=O)O	–	> 100 µM	–	> 100 µM	–	> 100 µM	–	> 100 µM	> 100 µM	> 100 µM	–	> 100 µM	–	> 100 µM	–	> 100 µM	–	> 100 µM	> 100 µM	–
C=CC[PH+](c1ccccc1)c1ccccc1.C=CC[PH+](c1ccccc1)c1ccccc1.[Cl][Pt][Cl]	13.9 µM	30.4 µM	3.6 µM	> 100 µM	2.1 µM	4.7 µM	5.62 µM	24.4 µM	17.1 µM	35.4 µM	3.18 µM	13.6 µM	11.9 µM	31.6 µM	3.46 µM	13.6 µM	3.35 µM	13.9 µM	16.8 µM	4.78 µM
O=c1[nH]c(-c2ccccn2)nc2sc3c(c12)CCCCCC3	90.9 µM	> 100 µM	0.905 µM	> 100 µM	1.09 µM	> 100 µM	2.47 µM	> 100 µM	5.62 µM	> 100 µM	3.63 µM	> 100 µM	> 100 µM	> 100 µM	4.85 µM	> 100 µM	6.29 µM	> 100 µM	> 100 µM	5.88 µM
N#CC1(C#N)C2C=CC(C3CCC=C32)C1(C#N)C#N (stereo not given)	–	> 10 µM	–	> 7.86 µM	–	> 10 µM	–	> 10 µM	–	> 10 µM	–	8.79 µM	–	> 10 µM	–	3.32 µM	–	> 10 µM	> 10 µM	–
CCCCCCCCCCCCCCCC(=O)OCC1OC(n2ccc(N)nc2=O)C(O)C1O (stereo not given)	–	> 100 µM	–	8.85 µM	–	> 100 µM	–	> 100 µM	–	> 100 µM	–	> 100 µM	–	> 100 µM	–	> 100 µM	–	> 100 µM	> 100 µM	–
CN(C)c1ccc(Sc2ccc3nc(N)nc(N)c3c2)cc1	1.16 µM	21 µM	0.906 µM	30.1 µM	0.3 µM	13.6 µM	1.14 µM	13.4 µM	3.28 µM	19.5 µM	2.92 µM	10.9 µM	1.09 µM	4.91 µM	0.318 µM	2.1 µM	0.761 µM	14.2 µM	17.1 µM	1.76 µM
O=C(Nc1ccccc1)Nc1ccccc1CNc1nc(Nc2ccc(OCCN3CCCC3)cc2)ncc1Cl	6.6 µM	13.3 µM	2.02 µM	17.8 µM	1.02 µM	2.11 µM	1.69 µM	7.82 µM	5.05 µM	11.4 µM	1.33 µM	3.6 µM	7.22 µM	18.3 µM	4.67 µM	12.7 µM	2.41 µM	9.12 µM	7.84 µM	1.81 µM
C#Cc1ccc(-n2c(/C=C/c3cc(OC)c(OC)c(OC)c3)nc3ncccc3c2=O)cc1	> 100 µM	> 100 µM	4.9 µM	> 100 µM	4.61 µM	64 µM	3.17 µM	> 100 µM	2.99 µM	9.95 µM	3.6 µM	> 100 µM	9.74 µM	> 100 µM	3.29 µM	49.6 µM	20.5 µM	> 100 µM	90.3 µM	12 µM
CCOc1cccnc1/C=N/NC(N)=S	6.37 µM	> 100 µM	3 µM	12 µM	2.7 µM	14 µM	3.25 µM	> 100 µM	6.02 µM	> 100 µM	3.82 µM	> 100 µM	3.99 µM	39.1 µM	4.46 µM	> 100 µM	3.5 µM	> 100 µM	> 100 µM	2.79 µM
C#Cc1cccc(Nc2ncnc3ccc(-c4cncc(NS(C)(=O)=O)c4)cc23)c1	1.07 µM	16.5 µM	0.82 µM	7.31 µM	1.26 µM	2.86 µM	1.5 µM	8.71 µM	1.07 µM	4.55 µM	2.18 µM	4.93 µM	3.7 µM	16.2 µM	2.36 µM	6.31 µM	2.51 µM	19.7 µM	75.9 µM	3.59 µM
CCOC(=O)Cc1csc(NC(=O)C(OC(=O)c2ccc(N)cc2)c2ccccc2)n1 (stereo not given)	> 100 µM	> 100 µM	–	–	41.7 µM	> 100 µM	32.3 µM	> 100 µM	40.3 µM	> 100 µM	63.9 µM	> 100 µM	40.5 µM	> 100 µM	49.5 µM	> 100 µM	46.6 µM	> 100 µM	> 100 µM	32.7 µM
CC[C@@]1(OC(=O)CN(C)C)C(=O)OCc2c1cc1n(c2=O)Cc2cc3ccccc3nc2-1	0.184 µM	2.93 µM and 5.92 µM	–	–	< 0.0161 µM	0.285 µM and 0.218 µM	0.0235 µM	> 100 µM	0.116 µM	4.09 µM and 8.64 µM	0.00464 µM	–	0.131 µM	1.12 µM and 1.31 µM	0.16 µM	–	–	4.03 µM and 0.892 µM	5.61 µM and 0.733 µM	0.205 µM
C[C@H](NC(=O)CCC(F)(F)F)C(=O)N[C@@H]1C(=O)N(CCO)c2ncccc2-c2ccccc21	> 100 µM	> 100 µM	> 100 µM	> 100 µM	> 100 µM	> 100 µM	> 100 µM	> 100 µM	> 100 µM	> 100 µM	> 100 µM	> 100 µM	–	–	> 100 µM	> 100 µM	> 100 µM	> 100 µM	> 100 µM	> 100 µM
